Assay results as given in paper PMC7490547 (Frontiers in Pharmacology, 2020).
Read-outs that look alike come from different tables or passages of the source.

Tests used:
[1] = target: T1, human 5-HT3A receptor (Homo sapiens, UniProt P46098); format: cell-based
T1 construct: expressed in transfected cells; host or cells: HEK293-AEQ17 cells (HEK 293 stably expressing apoaequorin), transient transfection
T1 sequence (P46098 24-478): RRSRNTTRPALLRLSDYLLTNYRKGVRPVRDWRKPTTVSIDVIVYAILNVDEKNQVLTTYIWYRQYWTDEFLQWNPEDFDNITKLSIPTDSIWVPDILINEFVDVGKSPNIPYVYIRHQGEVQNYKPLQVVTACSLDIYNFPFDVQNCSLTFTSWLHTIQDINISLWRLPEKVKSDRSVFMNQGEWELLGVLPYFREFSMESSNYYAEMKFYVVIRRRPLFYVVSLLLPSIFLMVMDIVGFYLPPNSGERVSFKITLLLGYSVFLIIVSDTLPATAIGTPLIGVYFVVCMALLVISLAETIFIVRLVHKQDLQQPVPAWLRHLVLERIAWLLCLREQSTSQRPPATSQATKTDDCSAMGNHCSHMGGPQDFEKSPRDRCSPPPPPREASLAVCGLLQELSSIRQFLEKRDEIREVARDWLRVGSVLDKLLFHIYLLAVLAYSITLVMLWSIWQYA
Method: Cells were seeded in 25-cm^2 cell culture flasks in Dulbecco’s modified Eagle’s medium (DMEM)/Ham’s F12 (1:1) + 10% fetal bovine serum to obtain a cell density of 50% to 70%, and the following day, transiently transfected with cDNA encoding human 5-HT3A receptor (3 µg) using Lipofectamine 2000 reagent (Thermo Fisher Scientific-Invitrogen, Waltham, MA) according to the manufacturer’s instructions. Two days after transfection, cells were harvested by centrifugation and resuspended in 0.5 ml (25-cm^2 flask) DMEM/Ham’s F12 (1:1) + 0.1% bovine serum albumin. The cell suspension was incubated with 10 μM Coelenterazine h (Thermo Fisher Scientific-Invitrogen, Waltham, MA, USA) for three hours at room temperature in the dark. […] Luminescence was measured using a Luminoskan (Thermo Fisher Scientific, Waltham, MA, USA) equipped with an injector and recorded at a sampling rate of 2 Hz for up to 60 s. At the end of the experiments, cells were lysed with Triton X-100 0.1% (v/v) and CaCl2 50 mM, and aequorin luminescence was recorded to obtain the maximum Ca^2+ response. […] Data were exported to software Origin™ 8.5 (Originlab Corp. Northampton, MA, USA).

[2] = target: T2, human 5-HT3 receptor (Homo sapiens, UniProt P46098); assay: Two-electrode voltage clamp of 5-HT-induced currents in Xenopus oocytes expressing human 5-HT3A receptor; format: cell-based; design: host or cells: Xenopus laevis oocytes injected with cRNA
T2 sequence (P46098 24-478): T1 sequence (P46098 24-478)
Source text: Mature female Xenopus laevis frogs were obtained from Xenopus leavis I, Ann Arbor, MI, USA. Experiments and methods used in this study were in accordance with the Guide for the Care and Use of Laboratory Animals of the National Institutes of Health (Bethesda, MD, USA) and our protocol (A9/08) was approved by the Institutional Animal Care and Use Committee at the College of Medicine and Health Sciences, United Arab Emirates University. Clusters of oocytes were removed surgically under benzocaine (0.03% w/v; Sigma, St.Louis, MO) anesthesia. Individually dissected oocytes were stored for 2 to 8 days in modified Barth’s solution (MBS) containing (in mM): NaCl 88; KCl 1; NaHCO3 2.4; CaCl2; 2; MgSO4 0.8; HEPES 10 (pH 7.5), supplemented with sodium pyruvate 2 mM, penicillin 10,000 IU/L, streptomycin 10 mg/L, gentamicin 50 mg/L, and theophylline 0.5 mM. […] In co-expression of subunit combinations, cDNAs for 5-HT3A and 5-HT3B subunits, were mixed in ratios of 1:1 (or 1:2), respectively. Following day, oocytes were placed in a 0.2 ml recording chamber and superfused at a constant rate of 3 to 5 ml/min. […] The oocytes were impaled with two standard glass microelectrodes filled with a 3 M KCl (1–3 MΩ) and voltage clamped at a holding potential of −70 mV using GeneClamp-500B amplifier (Axon Instruments Inc., Burlingame, CA). […] Compounds were applied by addition to the superfusate. […] Injections were performed 10 min prior to recordings using oil-driven ultra microsyringe pumps (Micro4; WPI, Inc. Sarasota, FL, USA).
The cDNA clones of the human 5-HT3A and 5-HT3B subunits were provided by OriGen Inc. (Rockville, MD). Complementary RNAs (cRNAs) were synthesized in vitro using a mMessage mMachine RNA transcription kit (Ambion Inc., Austin, TX). The quality and size of synthesized cRNAs were confirmed by denatured RNA agarose gels.
For the nonlinear curve fitting and regression fits of the dose-response curves and radio-ligand binding data, the computer software Origin™ 8.5 (Originlab Corp. Northampton, MA, USA) was used. In functional assays, average values were calculated as mean ± standard error means (S.E.M.). Statistical significance was analyzed using ANOVA or Student’s t test and post hoc Bonferroni test was used following ANOVA. Concentration-response curves were obtained by fitting the data to the logistic equation, […]

[3] = tested on: K+ channels; conditions: cited from earlier work
[4] = tested on: Ca2+ channels; conditions: cited from earlier work
[5] = design: method as in Rollyson et al., 2014; Swain and Kumar Mishra, 2015; conditions: ref Rollyson et al., 2014; Swain and Kumar Mishra, 2015; cited from earlier work
[6] = target: T3, human 5-HT3AB receptors (Homo sapiens, UniProt O95264+P46098); assay: Two-electrode voltage clamp in Xenopus oocytes co-expressing 5-HT3A and 5-HT3B subunits; format: cell-based; conditions: 100 µM; 3 µM 5-HT for 5-HT3A and 30 µM 5-HT for 5-HT3AB; n = 5–7, P>0.05
T3 construct: host or cells: Xenopus laevis oocytes, subunits injected at ratios 1:1 or 1:2
T3 sequence (P46098 24-478): T1 sequence (P46098 24-478)
T3 sequence (O95264 22-441): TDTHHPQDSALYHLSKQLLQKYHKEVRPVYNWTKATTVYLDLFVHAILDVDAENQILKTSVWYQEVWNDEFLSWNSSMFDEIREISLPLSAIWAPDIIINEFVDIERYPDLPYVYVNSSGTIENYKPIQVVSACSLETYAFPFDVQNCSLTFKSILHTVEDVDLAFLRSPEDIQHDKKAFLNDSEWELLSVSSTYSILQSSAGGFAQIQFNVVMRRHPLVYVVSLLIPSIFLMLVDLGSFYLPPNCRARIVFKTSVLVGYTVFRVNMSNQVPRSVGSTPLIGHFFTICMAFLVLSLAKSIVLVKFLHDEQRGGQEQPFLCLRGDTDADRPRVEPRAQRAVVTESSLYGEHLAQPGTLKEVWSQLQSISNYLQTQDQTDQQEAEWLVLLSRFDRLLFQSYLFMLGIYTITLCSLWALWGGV
Source text: Mature female Xenopus laevis frogs were obtained from Xenopus leavis I, Ann Arbor, MI, USA. Experiments and methods used in this study were in accordance with the Guide for the Care and Use of Laboratory Animals of the National Institutes of Health (Bethesda, MD, USA) and our protocol (A9/08) was approved by the Institutional Animal Care and Use Committee at the College of Medicine and Health Sciences, United Arab Emirates University. Clusters of oocytes were removed surgically under benzocaine (0.03% w/v; Sigma, St.Louis, MO) anesthesia. Individually dissected oocytes were stored for 2 to 8 days in modified Barth’s solution (MBS) containing (in mM): NaCl 88; KCl 1; NaHCO3 2.4; CaCl2; 2; MgSO4 0.8; HEPES 10 (pH 7.5), supplemented with sodium pyruvate 2 mM, penicillin 10,000 IU/L, streptomycin 10 mg/L, gentamicin 50 mg/L, and theophylline 0.5 mM. Human 5-HT3A receptor cRNA (3 ng in 50 nl) was injected into each oocyte as described before ([Ashoor et al., 2013]). In co-expression of subunit combinations, cDNAs for 5-HT3A and 5-HT3B subunits, were mixed in ratios of 1:1 (or 1:2), respectively. […] Current responses were digitized by A/D converter and analyzed using pClamp 10.4 (Molecular Devices-Axon Instruments, San Jose, CA USA) or Origin™ (Originlab Corp. Northampton, MA, USA), run on an IBM/PC. […]

[7] = design: method as in Lee et al., 1997; Wohlrab et al., 2015; conditions: assumed value; ref Lee et al., 1997; Wohlrab et al., 2015; cited from earlier work
[8] = tested on: voltage-gated Na+ channels; conditions: cited from earlier work

Q: Which “luminescence activation in cells not transfected with 5-HT3” value ([1]; 30 μM, coelenterazine h-loaded HEK-293-AEQ17 cells, n = 4) does the source give for NCCc1c[nH]c2ccc(O)cc12 [5-HT, 5-hydroxytryptamine] here?
A: did not cause luminescence activation

Q: What about the “slope of the aequorin concentration-response curve” value ([1]; HEK-293-AEQ17 cells transfected with human 5-HT3 receptor) of the same molecule?
A: 2.7

Q: With CN1[C@@H]2CC[C@H]1C[C@@H](OC(=O)c1cc(Cl)cc(Cl)c1)C2 [MDL72222, Tropanyl 3,5-dichlorobenzoate] as the molecule, how does the “inhibition of fast inward currents activated by 5-HT (1 μM) or 2-methyl-5-HT (10 μM)” value ([2]; 0.5 µM, n = 7) read?
A: completely inhibited

Q: For COc1cc(CNC(=O)CCCC/C=C/C(C)C)ccc1O [capsaicin, (E)-N-[(4-Hydroxy-3-methoxyphenyl)methyl]-8-methyl-6-nonenamide], which IC50 ([3]; ref Aréchiga-Figueroa et al., 2017) is on record?
A: 10 µM

Q: And the IC50 ([3]; ref Grissmer et al., 1994)?
A: 158 µM

Q: And the IC50 ([3]; ref Kuenzi and Dale, 1996)?
A: 21 µM

Q: And the IC50 ([3]; ref Wu et al., 2011)?
A: 103 µM

Q: And the IC50 ([4]; ref Castillo et al., 2007)?
A: 38 µM

Q: And the IC50 ([4]; ref Kuenzi and Dale, 1996)?
A: 44 µM

Q: And the “LogP (octanol–water partition coefficient)” value [5]?
A: 3.8

Q: And the “extent of inhibition among 5-HT3A, 5-HT3AB (1:1) and 5-HT3AB (1:2) receptors” value [6]?
A: not statistically different

Q: And the “fraction of topically applied capsaicin absorbed into the skin” value [7]?
A: 2%

Q: And the IC50 ([8]; ref Bielefeldt, 2000)?
A: 40 µM

Q: What about the IC50 ([8]; ref Duan et al., 2007) of the same molecule?
A: 39 µM

Q: And the IC50 ([8]; ref Tomohiro et al., 2013)?
A: 100 µM

Q: What about the IC50 ([8]; ref Wang et al., 2007) of the same molecule?
A: 76 µM

Q: With Oc1cc2c(cc1O)CN(C(=S)NCCc1ccc(Cl)cc1)CCC2 [capsazepine] as the molecule, how does the “change in amplitudes of 5-HT3 receptor-mediated currents, compound alone” value ([2]; 10 µM, 5-HT 1 µM, n = 4) read?
A: did not cause any significant change

Q: Which inhibition at 100 µM ([2]; read-out: 5-HT3 receptors inhibited to (% )) does the source give for COc1cc(CNC(=O)CCCCCCC(C)C)ccc1O [dihydrocapsaicin, Dihydrocapsaicin] here?
A: 62%

Q: Which “effect on 5-HT3 receptor currents” value ([2]; 100 µM for 15 min, n = 8, P>0.05) does the source give for COc1cc(C=O)ccc1O [vanillin] here?
A: did not affect
